The results in this text go back to publication PMC9354042, “Discovery of BRAF/HDAC Dual Inhibitors Suppressing Proliferation of Human Colorectal Cancer Cells” (Frontiers in Chemistry, 2022).

Structures are written as SMILES. Entries after “also recorded” stand apart in the source; their conditions may differ. Like-named read-outs stand apart in the source and are kept apart here.

One assay deals with T1, HDAC5 (Homo sapiens, UniProt Q9UQL6).
T1 construct: purchased BPS Bioscience
In words: HDAC5 fluorescent-based enzymatic activity assay. The assay is classed as biochemical. Conditions: Table 3 isoform panel; read-out: Enzyme inhibition HDAC5 (Class IIA). Here is the method:
(§1) The purified recombinant Human HDACs and their corresponding substrates were purchased from BPS Bioscience (BPS Bioscience Inc., United States). The assays were carried out in a 384-well format using the BPS fluorescent–based HDAC activity assay according to the manufacturer’s protocol. In brief, […] of the HDAC reaction mixture was composed of HDAC assay buffer, […] BSA, serial diluted test compounds, appropriate concentration of HDACs, and […] fluorogenic substrate, the mixture was incubated at 37°C for 60 min, and then stopped by the addition of developer containing trypsin and TSA. After 20 min of incubation, the fluorescence was detected at the excitation wavelength of 360 nm and the emission wavelength of 460 nm using the EnVision Multilabel Reader (PerkinElmer Inc., United States). The analytical software, GraphPad Prism 5.0 (GraphPad Software, Inc., United States) was used to generate IC50 value via non-linear regression analysis.

The next assay deals with T2, HDAC7 (Homo sapiens, UniProt Q8WUI4).
T2 construct: purchased BPS Bioscience
T2 sequence (Q8WUI4 1-952): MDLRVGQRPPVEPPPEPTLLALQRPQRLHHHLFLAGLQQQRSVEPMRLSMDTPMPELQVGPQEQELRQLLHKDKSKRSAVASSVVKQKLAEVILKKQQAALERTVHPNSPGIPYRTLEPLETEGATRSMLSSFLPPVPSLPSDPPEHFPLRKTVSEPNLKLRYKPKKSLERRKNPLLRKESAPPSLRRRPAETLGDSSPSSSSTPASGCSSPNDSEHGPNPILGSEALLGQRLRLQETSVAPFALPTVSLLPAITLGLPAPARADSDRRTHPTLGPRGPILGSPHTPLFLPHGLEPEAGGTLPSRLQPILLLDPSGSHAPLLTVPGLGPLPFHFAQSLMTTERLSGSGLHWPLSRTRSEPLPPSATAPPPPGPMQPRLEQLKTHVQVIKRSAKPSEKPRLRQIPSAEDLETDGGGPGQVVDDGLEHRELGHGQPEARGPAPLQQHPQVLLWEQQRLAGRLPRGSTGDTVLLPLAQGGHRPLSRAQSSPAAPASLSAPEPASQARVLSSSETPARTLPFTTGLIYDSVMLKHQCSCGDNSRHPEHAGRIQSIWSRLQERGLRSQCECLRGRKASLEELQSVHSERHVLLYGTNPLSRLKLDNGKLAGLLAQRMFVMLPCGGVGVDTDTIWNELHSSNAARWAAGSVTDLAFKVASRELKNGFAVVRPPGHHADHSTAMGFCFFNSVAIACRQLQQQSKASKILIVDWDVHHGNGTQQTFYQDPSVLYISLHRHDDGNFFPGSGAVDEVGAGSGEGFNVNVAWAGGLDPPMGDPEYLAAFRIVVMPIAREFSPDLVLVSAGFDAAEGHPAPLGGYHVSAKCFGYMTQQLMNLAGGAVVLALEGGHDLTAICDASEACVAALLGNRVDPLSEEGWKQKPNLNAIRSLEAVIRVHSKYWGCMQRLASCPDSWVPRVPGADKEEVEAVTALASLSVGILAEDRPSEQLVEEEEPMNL
In words: HDAC7 fluorescent-based enzymatic activity assay. The format is biochemical. Conditions: Table 3 isoform panel; read-out: Enzyme inhibition HDAC7 (Class IIA). Here is the method: as §1

In the next assay the target is T3, HDAC6 (Homo sapiens, UniProt Q9UBN7).
T3 construct: purchased BPS Bioscience
T3 sequence (Q9UBN7 1-1215): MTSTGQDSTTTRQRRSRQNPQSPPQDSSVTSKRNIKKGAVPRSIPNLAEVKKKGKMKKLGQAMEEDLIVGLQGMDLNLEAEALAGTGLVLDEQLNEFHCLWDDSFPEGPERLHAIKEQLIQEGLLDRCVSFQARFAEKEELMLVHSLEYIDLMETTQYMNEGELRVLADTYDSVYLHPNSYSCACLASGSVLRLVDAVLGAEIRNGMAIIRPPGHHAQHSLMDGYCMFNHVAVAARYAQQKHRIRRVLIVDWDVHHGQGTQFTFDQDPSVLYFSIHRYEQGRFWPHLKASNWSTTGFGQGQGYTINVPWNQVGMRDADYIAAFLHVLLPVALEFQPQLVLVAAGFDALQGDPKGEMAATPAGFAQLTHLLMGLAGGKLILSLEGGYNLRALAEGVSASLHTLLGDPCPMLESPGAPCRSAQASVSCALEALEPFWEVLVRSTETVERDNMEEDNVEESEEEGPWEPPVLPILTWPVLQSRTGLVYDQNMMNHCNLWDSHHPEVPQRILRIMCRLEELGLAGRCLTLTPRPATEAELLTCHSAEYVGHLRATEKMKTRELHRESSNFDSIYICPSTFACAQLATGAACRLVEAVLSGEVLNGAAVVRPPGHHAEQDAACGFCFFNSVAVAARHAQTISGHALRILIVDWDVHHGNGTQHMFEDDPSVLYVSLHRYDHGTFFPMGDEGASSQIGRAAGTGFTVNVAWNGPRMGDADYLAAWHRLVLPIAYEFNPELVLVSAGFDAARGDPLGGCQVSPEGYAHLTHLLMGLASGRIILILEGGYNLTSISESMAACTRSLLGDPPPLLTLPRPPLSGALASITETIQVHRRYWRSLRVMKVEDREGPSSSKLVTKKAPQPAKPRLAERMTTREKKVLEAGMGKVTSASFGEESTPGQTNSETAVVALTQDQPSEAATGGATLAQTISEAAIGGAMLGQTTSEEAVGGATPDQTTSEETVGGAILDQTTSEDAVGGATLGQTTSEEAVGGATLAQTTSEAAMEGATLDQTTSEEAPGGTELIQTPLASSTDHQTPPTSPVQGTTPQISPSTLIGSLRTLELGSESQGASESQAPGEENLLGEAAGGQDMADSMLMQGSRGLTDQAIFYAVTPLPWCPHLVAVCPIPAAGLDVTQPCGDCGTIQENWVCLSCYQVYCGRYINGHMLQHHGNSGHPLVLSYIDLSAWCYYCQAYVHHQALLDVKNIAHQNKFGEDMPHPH
In words: HDAC6 fluorescent-based enzymatic activity assay. The format is biochemical. On the procedure:
as §1

For a further assay, the system named is P-ERK in B16 cells. Put plainly: Immunoblot analysis of P-ERK in B16 cells. The assay is classed as cell-based. Conditions: B16 mouse melanoma cells with wild type BRAF, 24 h. An excerpt: Supplementary Figure 2. 14b inhibit the phosphorylation of ERK in B16 cells.
(In general: Immunoblotting shows a protein as a band on a membrane.)

The target in another assay is T4, HDAC3 (Homo sapiens, UniProt O15379).
T4 construct: purchased BPS Bioscience
T4 sequence (O15379 whole entry): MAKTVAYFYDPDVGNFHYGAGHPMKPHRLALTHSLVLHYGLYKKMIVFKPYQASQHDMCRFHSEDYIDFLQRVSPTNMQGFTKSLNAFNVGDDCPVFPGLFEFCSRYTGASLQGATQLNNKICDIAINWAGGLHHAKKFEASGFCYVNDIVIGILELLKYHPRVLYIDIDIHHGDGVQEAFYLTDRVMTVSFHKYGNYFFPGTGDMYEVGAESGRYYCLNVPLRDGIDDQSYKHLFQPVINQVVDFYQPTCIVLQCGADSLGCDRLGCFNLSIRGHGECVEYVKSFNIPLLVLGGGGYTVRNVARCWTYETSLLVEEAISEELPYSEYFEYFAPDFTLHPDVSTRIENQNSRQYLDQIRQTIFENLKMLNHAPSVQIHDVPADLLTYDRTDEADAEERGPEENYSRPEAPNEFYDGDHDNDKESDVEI
T4 sequence (Q9Y618 395-489 partner limits assumed): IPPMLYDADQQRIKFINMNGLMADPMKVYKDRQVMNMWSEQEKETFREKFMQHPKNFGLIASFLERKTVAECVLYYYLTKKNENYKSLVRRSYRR
In words: HDAC3 fluorescent-based enzymatic activity assay. The format is biochemical. Conditions: Table 3 isoform panel; read-out: Enzyme inhibition HDAC3 (Class I). On the procedure:
as §1

Another assay deals with T5, HDAC1 (Homo sapiens, UniProt Q13547).
T5 construct: purchased BPS Bioscience
T5 sequence (Q13547 whole entry): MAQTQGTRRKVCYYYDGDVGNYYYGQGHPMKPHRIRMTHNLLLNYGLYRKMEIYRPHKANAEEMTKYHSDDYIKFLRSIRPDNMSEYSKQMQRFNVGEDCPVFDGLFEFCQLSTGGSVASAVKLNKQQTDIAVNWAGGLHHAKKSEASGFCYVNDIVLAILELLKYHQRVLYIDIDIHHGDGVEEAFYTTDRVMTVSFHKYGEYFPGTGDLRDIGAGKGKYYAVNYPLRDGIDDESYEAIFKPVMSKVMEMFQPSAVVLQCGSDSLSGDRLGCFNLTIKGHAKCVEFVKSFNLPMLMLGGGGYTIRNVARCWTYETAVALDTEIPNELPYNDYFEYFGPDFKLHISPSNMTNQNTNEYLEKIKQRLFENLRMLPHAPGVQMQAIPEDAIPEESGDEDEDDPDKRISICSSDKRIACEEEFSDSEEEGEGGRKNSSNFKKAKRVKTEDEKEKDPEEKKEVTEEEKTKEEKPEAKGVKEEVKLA
Put plainly: HDAC1 fluorescent-based enzymatic activity assay. The assay is classed as biochemical. On the procedure: as §1

T1 sequence (Q9UQL6 whole entry): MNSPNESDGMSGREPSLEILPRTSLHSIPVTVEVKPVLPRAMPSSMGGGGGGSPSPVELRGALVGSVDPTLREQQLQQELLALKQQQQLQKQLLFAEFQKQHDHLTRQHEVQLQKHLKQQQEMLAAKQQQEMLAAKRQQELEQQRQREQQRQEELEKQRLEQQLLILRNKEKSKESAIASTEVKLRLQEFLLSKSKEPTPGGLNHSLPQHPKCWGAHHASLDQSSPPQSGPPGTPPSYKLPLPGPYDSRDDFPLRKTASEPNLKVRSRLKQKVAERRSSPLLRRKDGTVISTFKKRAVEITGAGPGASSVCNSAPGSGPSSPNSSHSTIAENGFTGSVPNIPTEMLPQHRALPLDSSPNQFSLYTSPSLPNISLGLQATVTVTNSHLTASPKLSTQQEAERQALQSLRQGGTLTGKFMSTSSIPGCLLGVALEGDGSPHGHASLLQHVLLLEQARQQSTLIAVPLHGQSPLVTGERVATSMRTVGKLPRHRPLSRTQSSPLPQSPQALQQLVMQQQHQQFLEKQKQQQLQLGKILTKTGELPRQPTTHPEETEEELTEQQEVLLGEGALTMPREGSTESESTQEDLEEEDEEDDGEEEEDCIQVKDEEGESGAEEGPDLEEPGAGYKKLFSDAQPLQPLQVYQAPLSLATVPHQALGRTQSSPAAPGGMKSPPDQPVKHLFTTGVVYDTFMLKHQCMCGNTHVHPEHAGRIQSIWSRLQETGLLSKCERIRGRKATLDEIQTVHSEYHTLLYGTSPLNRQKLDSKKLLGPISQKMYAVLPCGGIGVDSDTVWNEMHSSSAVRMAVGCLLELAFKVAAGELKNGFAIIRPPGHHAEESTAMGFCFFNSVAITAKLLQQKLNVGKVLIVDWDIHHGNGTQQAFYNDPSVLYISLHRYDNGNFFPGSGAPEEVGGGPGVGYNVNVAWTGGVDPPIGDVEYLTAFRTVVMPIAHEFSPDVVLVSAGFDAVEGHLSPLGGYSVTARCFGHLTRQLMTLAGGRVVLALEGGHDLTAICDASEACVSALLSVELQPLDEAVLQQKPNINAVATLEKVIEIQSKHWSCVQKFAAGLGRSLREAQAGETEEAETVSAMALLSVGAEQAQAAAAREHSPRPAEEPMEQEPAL

Turning to `CC(C)(C)c1nc(-c2cccc(NS(=O)(=O)c3c(F)cccc3F)c2F)c(-c2ccnc(NCCCCCCC(=O)NO)n2)s1` [14b, 7-{[4-(2-(Tert-Butyl)-4-(3-((2,6-Difluorophenyl)Sulfonamido)-2-Fluorophenyl)Thiazol-5-yl)Pyrimidin-2-yl]Amino}-N-Hydroxyheptanamide], the IC50 is 52.9 µM on HDAC5; 43.3 µM on HDAC7; 0.0492 µM on HDAC6 (Table 1, read-out: Enzymatic IC50 HDAC6); 0.049 µM on HDAC6 (Table 3 isoform panel, read-out: Enzyme inhibition HDAC6 (Class IIB)); 0.913 µM at HDAC3; 0.494 µM on HDAC1 (Table 1, read-out: Enzymatic IC50 HDAC1). Further, the IC50 at HDAC1 (Table 3 isoform panel, read-out: Enzyme inhibition HDAC1 (Class I)) was determined as 0.493 µM. The “HDAC6 inhibition fold more potent than class I isoforms” value at HDAC6 (HDAC6 vs HDAC1, HDAC2, HDAC3, HDAC8) is on record as greater than 10 fold. In addition, the “HDAC6 inhibition fold more potent than class IIA HDACs” value at HDAC6 (HDAC6 vs HDAC4, HDAC5, HDAC7) is listed as greater than 800 fold. Moreover, the “phosphorylation of ERK (P-ERK)” value with P-ERK in B16 cells is recorded as “downregulate P-ERK; also recorded: p-ERK inhibition was observed”.
